Laboratory results taken from ChEMBL document CHEMBL4765228, “Indole-like Trk receptor antagonists” (Eur J Med Chem, 2016).

Tests used:
[1] = biological target: Calcium/calmodulin-dependent protein kinase type 1D (Homo sapiens) (UniProt Q8IU85); test: Inhibition of human CAMK1D assessed as residual activity at 0.1 uM relative to control
[2] = biological target: Dual specificity tyrosine-phosphorylation-regulated kinase 1A (Homo sapiens) (UniProt Q13627); test: Inhibition of human DYRK1A assessed as residual activity at 0.1 uM relative to control
[3] = biological target: T1, Eukaryotic elongation factor 2 kinase (Homo sapiens) (UniProt O00418); test: Inhibition of human EEF2K assessed as residual activity at 0.1 uM relative to control
T1 sequence (whole entry): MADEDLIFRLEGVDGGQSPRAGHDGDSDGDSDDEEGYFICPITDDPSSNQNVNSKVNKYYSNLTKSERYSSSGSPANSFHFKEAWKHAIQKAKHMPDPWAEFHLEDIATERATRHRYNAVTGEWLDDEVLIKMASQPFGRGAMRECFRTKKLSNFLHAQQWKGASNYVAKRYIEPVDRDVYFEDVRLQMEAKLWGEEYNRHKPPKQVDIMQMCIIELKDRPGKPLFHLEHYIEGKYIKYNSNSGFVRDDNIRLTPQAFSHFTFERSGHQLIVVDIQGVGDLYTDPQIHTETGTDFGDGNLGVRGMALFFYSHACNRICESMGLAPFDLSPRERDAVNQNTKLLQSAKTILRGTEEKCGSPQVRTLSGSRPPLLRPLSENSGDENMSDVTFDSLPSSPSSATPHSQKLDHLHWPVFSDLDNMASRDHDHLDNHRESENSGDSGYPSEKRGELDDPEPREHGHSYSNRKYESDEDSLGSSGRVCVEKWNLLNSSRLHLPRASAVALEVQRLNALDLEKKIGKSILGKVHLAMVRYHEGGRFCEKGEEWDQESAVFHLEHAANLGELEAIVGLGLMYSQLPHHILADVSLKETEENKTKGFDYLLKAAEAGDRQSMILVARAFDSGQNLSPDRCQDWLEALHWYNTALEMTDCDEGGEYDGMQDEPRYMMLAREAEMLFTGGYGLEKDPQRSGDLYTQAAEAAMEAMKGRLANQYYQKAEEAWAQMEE

[4] = biological target: Tyrosine-protein kinase JAK2 (Homo sapiens) (UniProt O60674); test: Inhibition of human JAK2 assessed as residual activity at 1 uM relative to control
Tyrosine-protein kinase JAK2 (Homo sapiens), sequence (O60674 whole entry): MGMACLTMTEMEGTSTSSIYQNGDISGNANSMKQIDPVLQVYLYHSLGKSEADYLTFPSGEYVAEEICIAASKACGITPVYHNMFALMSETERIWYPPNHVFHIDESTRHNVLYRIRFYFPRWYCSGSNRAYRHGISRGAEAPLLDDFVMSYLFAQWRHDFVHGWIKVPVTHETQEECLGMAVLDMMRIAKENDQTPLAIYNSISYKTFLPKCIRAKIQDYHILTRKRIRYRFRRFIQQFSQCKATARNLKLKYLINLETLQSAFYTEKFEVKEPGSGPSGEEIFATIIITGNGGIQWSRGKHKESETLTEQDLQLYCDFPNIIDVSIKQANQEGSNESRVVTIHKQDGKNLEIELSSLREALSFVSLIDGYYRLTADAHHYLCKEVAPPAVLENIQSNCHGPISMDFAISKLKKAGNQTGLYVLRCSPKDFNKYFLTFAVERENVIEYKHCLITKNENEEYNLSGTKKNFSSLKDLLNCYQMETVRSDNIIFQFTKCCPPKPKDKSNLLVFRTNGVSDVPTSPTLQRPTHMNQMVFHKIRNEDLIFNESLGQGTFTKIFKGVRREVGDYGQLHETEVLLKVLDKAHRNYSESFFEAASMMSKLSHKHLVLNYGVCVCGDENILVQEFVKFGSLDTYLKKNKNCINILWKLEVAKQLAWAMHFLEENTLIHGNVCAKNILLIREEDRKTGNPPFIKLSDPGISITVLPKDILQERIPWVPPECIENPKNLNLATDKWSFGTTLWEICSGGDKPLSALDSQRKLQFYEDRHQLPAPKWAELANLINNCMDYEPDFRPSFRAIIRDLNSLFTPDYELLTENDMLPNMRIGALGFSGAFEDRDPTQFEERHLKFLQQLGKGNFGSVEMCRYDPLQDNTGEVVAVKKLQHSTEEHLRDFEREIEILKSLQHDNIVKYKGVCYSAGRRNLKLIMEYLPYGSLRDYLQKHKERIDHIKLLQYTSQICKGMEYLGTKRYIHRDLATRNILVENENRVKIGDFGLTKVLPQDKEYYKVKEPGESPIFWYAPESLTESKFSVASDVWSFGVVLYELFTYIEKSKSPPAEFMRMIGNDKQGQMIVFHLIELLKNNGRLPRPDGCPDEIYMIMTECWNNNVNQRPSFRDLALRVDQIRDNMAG

[5] = biological target: Mitogen-activated protein kinase 8 (Homo sapiens) (UniProt P45983); test: Inhibition of human JNK1 assessed as residual activity at 0.1 uM relative to control
Mitogen-activated protein kinase 8 (Homo sapiens), sequence (P45983 whole entry): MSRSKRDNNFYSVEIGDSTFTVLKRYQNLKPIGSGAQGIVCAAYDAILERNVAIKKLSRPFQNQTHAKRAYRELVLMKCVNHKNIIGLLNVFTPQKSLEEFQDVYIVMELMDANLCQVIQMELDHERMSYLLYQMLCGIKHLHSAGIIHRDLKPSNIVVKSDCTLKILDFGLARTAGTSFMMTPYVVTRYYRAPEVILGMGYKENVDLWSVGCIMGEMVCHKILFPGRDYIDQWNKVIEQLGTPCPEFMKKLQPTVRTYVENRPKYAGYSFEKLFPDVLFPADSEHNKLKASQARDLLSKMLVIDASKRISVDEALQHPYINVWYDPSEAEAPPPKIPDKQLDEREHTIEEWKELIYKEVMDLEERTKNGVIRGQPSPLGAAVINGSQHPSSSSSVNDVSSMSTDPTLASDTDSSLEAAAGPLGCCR

[6] = biological target: T2, Mitogen-activated protein kinase kinase kinase 7 (Homo sapiens) (UniProt O43318); test: Inhibition of human MAP3K7 assessed as residual activity at 1 uM relative to control
T2 sequence (whole entry): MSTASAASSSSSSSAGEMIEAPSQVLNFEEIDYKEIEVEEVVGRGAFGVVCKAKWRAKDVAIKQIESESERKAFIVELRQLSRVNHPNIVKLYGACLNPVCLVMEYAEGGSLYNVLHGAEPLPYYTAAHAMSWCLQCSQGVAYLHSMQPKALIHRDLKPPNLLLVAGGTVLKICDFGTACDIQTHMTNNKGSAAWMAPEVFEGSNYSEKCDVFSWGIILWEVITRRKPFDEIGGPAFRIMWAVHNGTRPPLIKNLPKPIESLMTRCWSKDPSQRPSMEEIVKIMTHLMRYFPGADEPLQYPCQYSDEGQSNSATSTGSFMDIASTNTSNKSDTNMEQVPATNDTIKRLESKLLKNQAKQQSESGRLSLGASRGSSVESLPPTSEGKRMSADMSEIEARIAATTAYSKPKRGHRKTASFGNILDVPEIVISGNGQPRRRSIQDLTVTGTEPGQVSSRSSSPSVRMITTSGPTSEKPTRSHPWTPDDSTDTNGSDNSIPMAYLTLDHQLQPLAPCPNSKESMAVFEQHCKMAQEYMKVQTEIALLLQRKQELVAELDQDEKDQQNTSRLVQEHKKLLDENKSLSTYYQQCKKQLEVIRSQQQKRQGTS

[7] = biological target: Dual specificity mitogen-activated protein kinase kinase 1 (Homo sapiens) (UniProt Q02750); test: Inhibition of human wild type MEK1 assessed as residual activity at 0.1 uM relative to control
Dual specificity mitogen-activated protein kinase kinase 1 (Homo sapiens), sequence (Q02750 whole entry): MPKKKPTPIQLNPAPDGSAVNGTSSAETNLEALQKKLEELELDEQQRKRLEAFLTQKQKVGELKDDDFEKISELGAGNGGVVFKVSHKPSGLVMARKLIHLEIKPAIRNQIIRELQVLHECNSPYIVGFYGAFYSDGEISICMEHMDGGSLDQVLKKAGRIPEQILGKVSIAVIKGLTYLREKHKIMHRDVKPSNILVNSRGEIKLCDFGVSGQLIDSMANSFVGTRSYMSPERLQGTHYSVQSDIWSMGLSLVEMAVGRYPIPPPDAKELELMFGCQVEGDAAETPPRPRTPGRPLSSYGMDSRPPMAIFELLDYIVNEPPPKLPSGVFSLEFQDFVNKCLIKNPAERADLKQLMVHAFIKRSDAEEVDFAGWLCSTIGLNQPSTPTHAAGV

[8] = biological target: T3, Serine/threonine-protein kinase D1 (Homo sapiens) (UniProt Q15139); test: Inhibition of human PKCmu assessed as residual activity at 0.1 uM relative to control
T3 sequence (whole entry): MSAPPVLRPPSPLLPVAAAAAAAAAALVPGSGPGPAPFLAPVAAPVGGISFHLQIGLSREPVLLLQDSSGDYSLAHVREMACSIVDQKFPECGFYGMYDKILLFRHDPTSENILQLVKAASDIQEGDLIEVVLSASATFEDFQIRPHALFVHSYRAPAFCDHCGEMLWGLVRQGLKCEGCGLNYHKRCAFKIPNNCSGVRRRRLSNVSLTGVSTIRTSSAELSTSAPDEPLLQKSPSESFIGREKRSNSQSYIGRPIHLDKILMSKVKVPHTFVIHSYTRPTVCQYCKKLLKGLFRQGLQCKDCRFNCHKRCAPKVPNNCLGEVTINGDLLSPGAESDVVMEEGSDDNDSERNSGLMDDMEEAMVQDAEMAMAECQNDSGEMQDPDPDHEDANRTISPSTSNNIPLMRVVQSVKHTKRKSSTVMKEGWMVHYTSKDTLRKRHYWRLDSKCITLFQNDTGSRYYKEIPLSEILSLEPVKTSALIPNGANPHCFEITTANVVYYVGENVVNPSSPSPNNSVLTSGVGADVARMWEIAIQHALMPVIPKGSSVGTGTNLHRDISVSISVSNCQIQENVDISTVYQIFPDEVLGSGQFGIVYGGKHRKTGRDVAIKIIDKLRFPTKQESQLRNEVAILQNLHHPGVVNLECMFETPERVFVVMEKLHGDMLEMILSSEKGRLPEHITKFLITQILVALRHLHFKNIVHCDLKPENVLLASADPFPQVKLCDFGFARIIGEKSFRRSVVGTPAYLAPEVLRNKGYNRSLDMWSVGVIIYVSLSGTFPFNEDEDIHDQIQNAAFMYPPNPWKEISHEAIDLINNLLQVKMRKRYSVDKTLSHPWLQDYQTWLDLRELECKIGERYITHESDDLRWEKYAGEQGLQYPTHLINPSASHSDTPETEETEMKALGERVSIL

[9] = biological target: Serine/threonine-protein kinase PLK1 (Homo sapiens) (UniProt P53350); test: Inhibition of human PLK1 assessed as residual activity at 0.1 uM relative to control
Serine/threonine-protein kinase PLK1 (Homo sapiens), sequence (P53350 whole entry): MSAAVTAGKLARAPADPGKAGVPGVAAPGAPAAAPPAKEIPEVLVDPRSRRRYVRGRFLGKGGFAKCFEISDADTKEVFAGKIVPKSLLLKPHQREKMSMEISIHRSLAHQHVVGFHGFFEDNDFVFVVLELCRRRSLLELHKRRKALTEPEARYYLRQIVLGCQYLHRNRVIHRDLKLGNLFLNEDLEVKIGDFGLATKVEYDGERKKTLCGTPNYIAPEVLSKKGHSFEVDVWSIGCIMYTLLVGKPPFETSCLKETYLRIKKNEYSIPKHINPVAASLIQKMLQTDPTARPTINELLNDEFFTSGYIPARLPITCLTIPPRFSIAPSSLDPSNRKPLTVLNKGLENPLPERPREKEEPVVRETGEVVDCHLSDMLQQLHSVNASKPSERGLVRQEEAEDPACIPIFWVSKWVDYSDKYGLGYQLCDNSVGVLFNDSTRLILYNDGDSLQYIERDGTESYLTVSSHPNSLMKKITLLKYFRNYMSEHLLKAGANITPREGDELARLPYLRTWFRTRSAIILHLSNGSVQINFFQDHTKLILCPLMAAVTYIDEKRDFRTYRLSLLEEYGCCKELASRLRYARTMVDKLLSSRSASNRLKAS

[10] = biological target: Serine/threonine-protein kinase PLK1 (Homo sapiens) (UniProt P53350); test: Inhibition of human PLK1 assessed as residual activity at 1 uM relative to control
[11] = biological target: Serine/threonine-protein kinase N2 (Homo sapiens) (UniProt Q16513); test: Inhibition of human PRK2 assessed as residual activity at 0.1 uM relative to control
Serine/threonine-protein kinase N2 (Homo sapiens), sequence (Q16513 whole entry, looked up): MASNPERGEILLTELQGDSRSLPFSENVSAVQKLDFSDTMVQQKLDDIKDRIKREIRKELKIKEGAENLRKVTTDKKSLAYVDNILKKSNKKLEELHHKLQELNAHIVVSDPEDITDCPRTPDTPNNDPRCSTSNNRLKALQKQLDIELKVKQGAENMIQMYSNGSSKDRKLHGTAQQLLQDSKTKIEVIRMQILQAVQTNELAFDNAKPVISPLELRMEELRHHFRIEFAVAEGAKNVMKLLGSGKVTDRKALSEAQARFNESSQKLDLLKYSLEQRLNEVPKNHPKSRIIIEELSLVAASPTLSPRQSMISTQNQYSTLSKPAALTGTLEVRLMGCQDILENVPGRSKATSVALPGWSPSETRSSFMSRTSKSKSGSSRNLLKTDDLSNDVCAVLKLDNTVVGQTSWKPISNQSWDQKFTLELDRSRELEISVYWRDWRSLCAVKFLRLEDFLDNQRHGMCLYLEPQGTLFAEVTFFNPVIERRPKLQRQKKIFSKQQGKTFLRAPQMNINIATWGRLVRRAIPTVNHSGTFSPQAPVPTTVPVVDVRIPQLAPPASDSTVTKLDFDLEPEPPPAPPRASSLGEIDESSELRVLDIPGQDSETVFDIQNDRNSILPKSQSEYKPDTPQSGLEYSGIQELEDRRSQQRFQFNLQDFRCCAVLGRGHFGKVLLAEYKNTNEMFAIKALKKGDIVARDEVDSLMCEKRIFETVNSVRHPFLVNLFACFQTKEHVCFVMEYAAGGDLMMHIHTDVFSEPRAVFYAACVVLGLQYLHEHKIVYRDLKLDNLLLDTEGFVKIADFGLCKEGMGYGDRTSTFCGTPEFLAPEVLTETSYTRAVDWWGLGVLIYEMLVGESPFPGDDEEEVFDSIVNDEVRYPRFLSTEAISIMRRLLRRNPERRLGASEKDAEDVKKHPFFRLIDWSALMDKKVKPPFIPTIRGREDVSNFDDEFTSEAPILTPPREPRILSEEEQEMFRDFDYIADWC

[12] = biological target: Ribosomal protein S6 kinase alpha-5 (Homo sapiens) (UniProt O75582); test: Inhibition of human RPS6KA5 assessed as residual activity at 0.1 uM relative to control
Ribosomal protein S6 kinase alpha-5 (Homo sapiens), sequence (O75582 whole entry, looked up): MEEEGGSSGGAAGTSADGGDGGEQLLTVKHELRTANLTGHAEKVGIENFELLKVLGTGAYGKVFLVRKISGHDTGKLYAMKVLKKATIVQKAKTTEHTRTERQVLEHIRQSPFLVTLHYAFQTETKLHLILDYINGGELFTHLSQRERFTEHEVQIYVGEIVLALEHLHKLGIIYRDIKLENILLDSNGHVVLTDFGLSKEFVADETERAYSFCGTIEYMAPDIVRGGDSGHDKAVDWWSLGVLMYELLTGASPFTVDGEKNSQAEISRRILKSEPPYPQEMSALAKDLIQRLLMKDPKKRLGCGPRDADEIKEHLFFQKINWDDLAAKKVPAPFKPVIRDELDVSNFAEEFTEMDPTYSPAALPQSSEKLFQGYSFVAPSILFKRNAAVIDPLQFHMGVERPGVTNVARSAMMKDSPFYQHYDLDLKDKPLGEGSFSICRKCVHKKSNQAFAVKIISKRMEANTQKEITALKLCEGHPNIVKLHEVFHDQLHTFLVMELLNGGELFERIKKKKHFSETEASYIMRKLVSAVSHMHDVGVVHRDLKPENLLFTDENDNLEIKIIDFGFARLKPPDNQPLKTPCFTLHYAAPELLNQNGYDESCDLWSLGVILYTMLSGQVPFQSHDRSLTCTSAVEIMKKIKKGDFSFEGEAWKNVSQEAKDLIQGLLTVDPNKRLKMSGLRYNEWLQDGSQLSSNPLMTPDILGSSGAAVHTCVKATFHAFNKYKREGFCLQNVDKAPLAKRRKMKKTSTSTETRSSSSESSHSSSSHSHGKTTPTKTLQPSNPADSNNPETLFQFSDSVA

Calcium/calmodulin-dependent protein kinase type 1D (Homo sapiens), sequence (Q8IU85 whole entry, looked up): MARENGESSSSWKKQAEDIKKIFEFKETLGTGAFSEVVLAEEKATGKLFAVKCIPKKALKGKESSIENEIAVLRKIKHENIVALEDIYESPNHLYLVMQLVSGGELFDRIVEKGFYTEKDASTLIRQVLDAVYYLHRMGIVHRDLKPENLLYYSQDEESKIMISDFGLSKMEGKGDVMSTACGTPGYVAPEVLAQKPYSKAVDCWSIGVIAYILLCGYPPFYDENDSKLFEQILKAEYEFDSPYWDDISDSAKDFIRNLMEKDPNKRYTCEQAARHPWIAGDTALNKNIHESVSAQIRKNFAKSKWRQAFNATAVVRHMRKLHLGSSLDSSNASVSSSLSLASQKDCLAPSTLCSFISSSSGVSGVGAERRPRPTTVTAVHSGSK

| Activity [1] | Activity [2] | Activity [3] | Activity [4] | Activity [5] | Activity [6] | Activity [7] | Activity [8] | Activity [9] | Activity [10] | Activity [11] | Activity [12] | SMILES |
| --- | --- | --- | --- | --- | --- | --- | --- | --- | --- | --- | --- | --- |
| 84% | 101% | 101% | 86% | 110% | 89% | 82% | 90% | 93% | 93% | 98% | 103% | COc1ccc2c(c1)c(/C=C1\C(=O)Nc3ccc(S(N)(=O)=O)cc31)cn2C |
| 99% | 98% | 99% | 72% | 103% | 88% | 104% | 89% | 83% | 93% | 108% | 105% | COc1ccc2c(c1)c(/C=C1\C(=O)Nc3ccc(S(=O)(=O)N(C)C)cc31)cn2C |
| 106% | 122% | 99% | 67% | 121% | 63% | 67% | 95% | 102% | 91% | 94% | 99% | Cn1cc(/C=C2\C(=O)Nc3ccc(S(N)(=O)=O)cc32)c2ccccc21 |
| 100% | 101% | 97% | 55% | 105% | 92% | 107% | 99% | 93% | 91% | 91% | 106% | CN(C)S(=O)(=O)c1ccc2c(c1)/C(=C/c1cn(C)c3ccc(O)cc13)C(=O)N2 |
| 97% | 105% | 107% | 67% | 103% | 64% | 87% | 95% | 93% | 95% | 96% | 93% | COc1ccc2[nH]cc(/C=C3\C(=O)Nc4ccc(S(N)(=O)=O)cc43)c2c1 |
| 90% | 89% | 103% | 87% | 103% | 95% | 104% | 92% | 92% | 87% | 90% | 96% | CNS(=O)(=O)c1ccc2c(c1)/C(=C/c1cn(C)c3ccc(OC)cc13)C(=O)N2 |
